# Data taken from patent publication US10065972B2, “Bicyclic or tricyclic heterocyclic compound” (MITSUBISHI TANABE PHARMA CORPORATION, priority 2014, dated 2018).
# Target: human recombinant KAT-II (Homo sapiens (Human), UniProt Q8N5Z0)
# Experiment: KAT-II inhibitory test
# Assay type: biochemical
# Conditions: 3.0 μmol/L kynurenine, 37° C., 1 hr, pH 8.0; kynurenic acid quantified by HPLC
# Summary of the method: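 Kynurenic acid formation was measured by HPLC fluorescence (354 nm excitation, 460 nm emission) against an external standard curve. The substrate was 3.0 μmol/L kynurenine with 10 μmol/L pyridoxal phosphate, at pH 8.0 Tris-acetate, 37 °C for 1 hr, using 2.0 ng/μL amylose-purified N-terminal His/MBP-tagged recombinant enzyme. Duplicate measurements were made per concentration.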
# Sequence of human recombinant KAT-II (Q8N5Z0 30-425): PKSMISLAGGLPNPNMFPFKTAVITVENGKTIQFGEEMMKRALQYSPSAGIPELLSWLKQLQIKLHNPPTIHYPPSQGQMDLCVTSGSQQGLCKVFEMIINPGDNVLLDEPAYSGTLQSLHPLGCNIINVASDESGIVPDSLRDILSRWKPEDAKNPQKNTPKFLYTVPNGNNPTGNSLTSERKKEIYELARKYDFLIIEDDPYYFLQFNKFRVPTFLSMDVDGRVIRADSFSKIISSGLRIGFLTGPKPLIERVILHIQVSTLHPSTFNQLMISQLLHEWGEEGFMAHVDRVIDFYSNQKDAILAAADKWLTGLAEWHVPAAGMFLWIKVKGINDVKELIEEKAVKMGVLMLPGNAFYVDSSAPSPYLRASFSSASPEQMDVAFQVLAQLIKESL
row,SMILES,IC50
1,"Cn1c(-c2ccccc2)nc2sc(N3CC[C@@H](N)[C@@H]3C(=O)NCc3ccccc3)nc2c1=O [Example 611, (2R,3R)-3-amino-N-benzyl-1-(6-methyl-7-oxo-5-phenyl-6,7-dihydro[1,3]thiazolo[5,4-d]pyrimidin-2-yl)pyrrolidine-2-carboxamide]",570 nM
2,"Cc1nn(C2CCCCC2)c(=O)c2nc(N3CCC[C@@H]3C(=O)NCc3ccccc3)sc12 [Example 616, (R)-N-benzyl-1-(5-cyclohexyl-7-methyl-4-oxo-4,5-dihydro[1,3]thiazolo[4,5-d]pyridazin-2-yl)pyrrolidine-2-carboxamide]",73 nM
3,"O=C(NCc1ccccc1)[C@H]1CCCN1c1nc2c(=O)[nH]cc(C(F)(F)F)c2s1 [Example 617, (R)-N-benzyl-1-(4-oxo-7-trifluoromethyl-4,5-dihydro[1,3]thiazolo[4,5-c]pyridin-2-yl)pyrrolidine-2-carboxamide]",240 nM
4,"CCCc1cc(=O)n2nc(N3CCCC[C@@H]3C(=O)NCc3ccccc3)sc2n1 [Example 635, (R)-N-benzyl-1-(5-oxo-7-propyl-5H-[1,3,4]thiadiazolo[3,2-a]pyrimidin-2-yl) piperidine-2-carboxamide]",970 nM
5,"Cc1cc(=O)n2nc(N3CCC[C@@H]3C(=O)NC(C)(C)c3ccccc3)sc2n1 [Example 636, (R)-1-(7-methyl-5-oxo-5H-[1,3,4]thiadiazolo[3,2-a]pyrimidin-2-yl)-N-(1-methyl-1-phenylethyl)pyrrolidine-2-carboxamide]",1500 nM
6,"O=C(NCc1ccccc1)[C@H]1CCCN1c1nn2c(=O)cc(C(F)(F)F)nc2s1 [Example 642, (R)-N-benzyl-1-(5-oxo-7-trifluoromethyl-5H-[1,3,4]thiadiazolo[3,2-a]pyrimidin-2-yl)pyrrolidine-2-carboxamide]",78 nM
7,"CCc1cc(=O)n2nc(N3CCOC[C@@H]3C(=O)NCc3ccccc3)sc2n1 [Example 645, (R)-N-benzyl-4-(7-ethyl-5-oxo-5H-[1,3,4]thiadiazolo[3,2-a]pyrimidin-2-yl)morpholine-3-carboxamide]",1600 nM
8,"Cc1nc2sc(N3CCC[C@@H]3C(=O)NCc3ccccc3)nn2c(=O)c1C(C)C [Example 647, (R)-N-benzyl-1-[7-methyl-5-oxo-6-(propan-2-yl)-5H-[1,3,4]thiadiazolo[3,2-a]pyrimidin-2-yl]pyrrolidine-2-carboxamide]",58 nM
9,"CCc1nc2sc(N3CC(F)(F)C[C@@H]3C(=O)NCc3ccccc3)nn2c(=O)c1F [Example 650, (R)-N-benzyl-1-(7-ethyl-6-fluoro-5-oxo-5H-[1,3,4]thiadiazolo[3,2-a]pyrimidin-2-yl)-4,4-difluoropyrrolidine-2-carboxamide]",2200 nM
10,"CC(C)c1cc(=O)n2nc(N3CCC[C@@H]3C(=O)NCc3ccccn3)sc2n1 [Example 653, (R)-1-[5-oxo-7-(propan-2-yl)-5H-[1,3,4]thiadiazolo[3,2-a]pyrimidin-2-yl]-N-[(pyridin-2-yl)methyl]pyrrolidine-2-carboxamide]",190 nM
11,"CCc1nc2sc(N3CCC[C@@H]3C(=O)NCc3cc(C)ccn3)nn2c(=O)c1F [Example 664, (R)-1-(7-ethyl-6-fluoro-5-oxo-5H-[1,3,4]thiadiazolo[3,2-a]pyrimidin-2-yl)-N-[(4-methylpyridin-2-yl)methyl]pyrrolidine-2-carboxamide]",560 nM

# These reach a lower IC50. Values come first.
row,IC50,SMILES
1,52 nM,"CCc1nn(CC)c(=O)c2nc(N3CCC[C@@H]3C(=O)NCc3ccccc3)sc12 [Example 612, (R)-N-benzyl-1-(5,7-diethyl-4-oxo-4,5-dihydro[1,3]thiazolo[4,5-d]pyridazin-2-yl)pyrrolidine-2-carboxamide]"
2,22 nM,"CCc1nn(C2CCOCC2)c(=O)c2nc(N3CCC[C@@H]3C(=O)NCc3ccccc3)sc12 [Example 613, (R)-N-benzyl-1-[7-ethyl-4-oxo-5-(tetrahydro-2H-pyran-4-yl)-4,5-dihydro[1,3]thiazolo[4,5-d]pyridazin-2-yl]pyrrolidine-2-carboxamide]"
3,16 nM,"CCn1nc(C2CC2)c2sc(N3CCC[C@@H]3C(=O)NCc3ccccc3)nc2c1=O [Example 614, (R)-N-benzyl-1-(7-cyclopropyl-5-ethyl-4-oxo-4,5-dihydro[1,3]thiazolo[4,5-d]pyridazin-2-yl)pyrrolidine-2-carboxamide]"
4,22 nM,"O=C(NCc1ccccc1)[C@H]1CCCN1c1nc2c(=O)[nH]c(C3CC3)c(Cl)c2s1 [Example 623, (R)-N-benzyl-1-(7-chloro-6-cyclopropyl-4-oxo-4,5-dihydro[1,3]thiazolo[4,5-c]pyridin-2-yl)pyrrolidine-2-carboxamide]"
5,15 nM,"O=C(NCc1ccccc1)[C@H]1CCCN1c1nc2c(=O)[nH]c(-c3ccccc3F)c(Cl)c2s1 [Example 624, (R)-N-benzyl-1-[7-chloro-6-(2-fluorophenyl)-4-oxo-4,5-dihydro[1,3]thiazolo[4,5-c]pyridin-2-yl]pyrrolidine-2-carboxamide]"
6,15 nM,"CC(C)(F)c1[nH]c(=O)c2nc(N3CCC[C@@H]3C(=O)NCc3ccccc3)sc2c1Cl [Example 626, (R)-N-benzyl-1-[7-chloro-6-(2-fluoropropan-2-yl)-4-oxo-4,5-dihydro[1,3]thiazolo[4,5-c]pyridin-2-yl]pyrrolidine-2-carboxamide]"
7,47 nM,"CCOC1(c2cc3sc(N4CCC[C@@H]4C(=O)NCc4ccccc4)nc3c(=O)[nH]2)CC1 [Example 629, (R)-N-benzyl-1-[6-(1-ethoxycyclopropyl)-4-oxo-4,5-dihydro[1,3]thiazolo[4,5-c]pyridin-2-yl]pyrrolidine-2-carboxamide]"
8,55 nM,"Cn1c(C(F)(F)F)cc2sc(N3CCC[C@@H]3C(=O)NCc3ccccc3)nc2c1=O [Example 631, (R)-N-benzyl-1-(5-methyl-4-oxo-6-trifluoromethyl-4,5-dihydro[1,3]thiazolo[4,5-c]pyridin-2-yl)pyrrolidine-2-carboxamide]"
9,29 nM,"O=C(NCc1ccccc1)[C@H]1CCCN1c1nn2c(=O)cc(-c3ccccc3)nc2s1 [Example 638, (R)-N-benzyl-1-(5-oxo-7-phenyl-5H-[1,3,4]thiadiazolo[3,2-a]pyrimidin-2-yl)pyrrolidine-2-carboxamide]"
10,49 nM,"O=C(NCc1ccccc1)[C@H]1CCCN1c1nn2c(=O)c3c(nc2s1)CCCC3 [Example 639, (R)-N-benzyl-1-(5-oxo-6,7,8,9-tetrahydro-5H-[1,3,4]thiadiazolo[2,3-b]quinazolin-2-yl)pyrrolidine-2-carboxamide]"
11,46 nM,"Cc1nc2sc(N3CCC[C@@H]3C(=O)NCc3ccccc3)nn2c(=O)c1-c1ccccc1 [Example 648, (R)-N-benzyl-1-(7-methyl-5-oxo-6-phenyl-5H-[1,3,4]thiadiazolo[3,2-a]pyrimidin-2-yl)pyrrolidine-2-carboxamide]"
12,29 nM,"O=C(NC1(c2ccccc2)CC1)[C@H]1CCCN1c1nn2c(=O)c3ccccc3nc2s1 [Example 655, (R)-1-(5-oxo-5H-[1,3,4]thiadiazolo[2,3-b]quinazolin-2-yl)-N-(1-phenylcyclopropyl)pyrrolidine-2-carboxamide]"
13,44 nM,"Cc1cc2c(=O)n3nc(N4CCC[C@@H]4C(=O)NCc4ccccc4)sc3nc2s1 [Example 656, (R)-N-benzyl-1-(6-methyl-8-oxo-8H-[1,3,4]thiadiazolo[3,2-a]thieno[2,3-d]pyrimidin-2-yl)pyrrolidine-2-carboxamide]"
